Laboratory results: patent US20110250184A1, “METHODS FOR DETERMINING EFFICACY OF A THERAPEUTIC REGIMEN AGAINST DELETERIOUS EFFECTS OF CYTOTOXIC AGENTS IN HUMAN” (priority 2008, published 2011)
Entries after “also recorded” stand apart in the source; their conditions may differ.

Key:
[1] = test system: HFL-1 (normal diploid lung fibroblasts) cells; test: Clonogenic assay, radioprotection of HFL-1 cells against ionizing radiation; type: cell-based, human
Description: FIG. 1. Protection of HFL-1 cells against Ionizing Radiation (IR) by ON 01210.Na. Following drug treatment and radiation exposure, cells were re-plated and the number of colonies from each plate was enumerated three weeks later. A. Relation of concentration of ON 01210.Na to number of surviving colonies. B. Stained clonogenic assay plates.
A clonogenic assay was used to measure radioprotection of ON 01210.Na on cultured human cells. Treatment of HFL-1 (normal diploid lung fibroblasts) cells with 2-20 μM of ON 01210.Na for 24 hours prior to cytotoxic levels of Ionizing Radiation (IR) (10 Gy) provided 3.3-4.7 fold protection in a dose-dependent manner (see FIG. 1A).HFL-1 cells, were treated with ON 01210.Na at final concentrations ranging from 2.0 to 20.0 μM. In a second experiment, cells were also treated with the drug for 24 h, but the drug was applied 4 h after irradiation.
Following drug treatment and radiation exposure, cells were re-plated and the number of colonies from each plate was enumerated three weeks later. A. Relation of concentration of ON 01210.Na to number of surviving colonies. B. Stained clonogenic assay plates.

human bone marrow cells [2] = test: Cytotoxicity to human bone marrow cells (methocult, total colony forming units); type: cell-based; conditions: 2 and 24 hours treatment, up to 20 μM; sodium salt
Experimental: FIG. 2. ON 01210.Na is not cytotoxic to human bone marrow cells in vitro. Human bone marrow cells were treated with various concentrations of ON 01210.Na for (A) 2 hrs or (B) 24 hrs. The cells were then plated into methocult medium. Total colony forming units were determined 14 days later.
The ability of ON 01210.Na to protect primary human bone marrow cells from cytotoxic doses of radiation was studied in an in vitro assay. Initially, cytotoxicity studies were performed. Human bone marrow cells isolated from healthy volunteers were treated with increasing concentrations of ON 01210.Na for 2 and 24 hours and plated into methocult.
FIG. 2. ON 01210.Na was not cytotoxic to human bone marrow cells in vitro. Human bone marrow cells were treated with various concentrations of ON 01210.Na for (A) 2 hrs or (B) 24 hrs. The cells were then plated into methocult medium. Total colony forming units were determined 14 days later.

human bone marrow cells [3] = test: In vitro radiation protection of human bone marrow cells (methocult CFU); type: cell-based
Experimental: FIG. 3. In vitro radiation protection of human bone marrow cells. Human bone marrow cells were treated with increasing concentrations of ON 01210.Na for 3 hours, and then irradiated with increasing doses of ionizing radiation. The cells were plated into methocult and the total number of CFUs was determined 14 days later.
Radiation protection assays were then performed (FIG. 3). Cells were treated with ON 01210.Na for 3 hours, irradiated, and plated in methocult. The total number of colony forming units was determined 14 days later. […] This compared very favorably when analyzed against protection studies using amifostine as a positive control.
Human bone marrow cells were treated with increasing concentrations of ON 01210.Na for 3 hours, and then irradiated with increasing doses of ionizing radiation. The cells were plated into methocult and the total number of CFUs was determined 14 days later.
When we plotted the survival curve at the optimal concentration of ON 01210.Na (FIG. 3C) we were able to calculate a dose reduction factor (DRF) of 1.6. We also tested the radiation protection activity of amifostine. Amifostine concentrations were selected that closely mimicked the therapeutic plasma concentrations. […] The calculated DRF value of 1.5 was determined from these experiments.

[4] = test system: mice exposed to lethal doses of whole body ionizing radiation; test: In vivo survival studies in mice after lethal whole body radiation (30-day survival model)
Experimental: Since survival of animals after radiation exposure depends largely on the protection of the hematopoietic system, the effect of ON 01210.Na treatment on hematopoietic cell survival was investigated using various schedules before radiation exposure. The radioprotection of hematopoietic cells by ON 01210.Na was studied in an in vivo assay using a sub lethal dose of radiation. C3H/HEJ mice were treated with ON 01210.Na following various schedules in order to determine the optimal dose and schedule of ON 01210.Na for maximum protection of the hematopoietic system in mice.
In vivo survival studies in mice were designed to explore the effects of dose and schedule on survival, based on the well-established 30-day survival model, establish a dose reduction factor (DRF) for ON 01210.Na, compare two different formulations (suspension vs. solution) of ON 01210.Na; and show protection and recovery benefits of ON 01210.Na to the hematopoietic system and gastrointestinal tract of treated mice.
Two dose reduction factor (DRF) studies determined that the DRF for ON 01210.Na was 1.14 to 1.16.

jejunal crypt stem cells = test: Gastrointestinal tissue damage in irradiated mice; type: in vivo; conditions: pretreated prior to irradiation
[5] = test system: New Zealand white rabbits; test: Survival studies in rabbits after lethal doses of radiation; type: in vivo; conditions: 120 mg/kg at 24 hours and 15 minutes before lethal doses of radiation
Experimental: (§1) Unlike in the mouse studies, clear evidence of improved repopulation of various hematologic cell lineages was not evident in these preliminary studies. Both solution and suspension formulations were tested.

[6] = test system: white blood cells, platelets, hematocrit and hemoglobin levels; test: Hematology in irradiated rabbits; type: in vivo, New Zealand white rabbits
Experimental: as §1

[7] = test system: human umbilical vein endothelial cells; test: In vitro clonogenic survival assay, endothelial cells; type: cell-based
DNA damage = test: Comet assay, DNA damage caused by irradiation of cells; type: cell-based
[8] = test system: apoptosis-specific signaling events; test: Signaling studies, apoptosis-specific signaling after radiation; type: cell-based; conditions: treatment prior to radiation exposure
Description: To analyze and investigate the efficacy of a cytotoxic protective drug, biological assays were developed that assisted in determination of the mechanism of action of these drugs at the intracellular level. In the case of ON 01210.Na, certain components of cellular and DNA damage-sensing, repair, and apoptosis pathways were studied in more detail.

human bone marrow cells [9] = test: In vitro radiation protection of human bone marrow cells (methocult CFU); type: cell-based; conditions: 3 hour treatment, no radiation, all concentrations tested; sodium salt

Question: Which results are given for `O=C([O-])c1ccc(/C=C/S(=O)(=O)Cc2ccc(Cl)cc2)cc1.[Na+]` [ON 01210.Na, E-4-Carboxystyryl-4-chlorobenzylsulfone sodium salt]?
Answer: fold protection (surviving colonies) ([1]; 2-20 μM for 24 hours prior to 10 Gy IR, dose-dependent): 3.3-4.7 fold; number of cells per colony ([1]; ON 01210.Na treated group after IR): significant larger; protection from radiation exposure (clonogenic survival) ([1]; human lung fibroblasts): protected; protection when cells treated post irradiation ([1]; treated four hours post irradiation exposure, 24 h): significant protection; cytotoxicity to human bone marrow cells (total colony forming units) (human bone marrow cells [2]): non cytotoxic; also recorded: not cytotoxic; also recorded: nontoxic; range of concentrations that protected cells (human bone marrow cells [3]): 10 fold; optimal concentration for radiation protection (human bone marrow cells [3]; 3 hours treatment): 10 µM; radiation protection of human bone marrow cells (human bone marrow cells [3]; 3 hours treatment before irradiation, sodium salt): protect human bone marrow cells in a dose dependent manner; also recorded: protected human bone marrow cells in a dose responsive manner; also recorded: very effective; also recorded: reproducibly protect; dose reduction factor (DRF) (human bone marrow cells [3]; ON 01210.Na 10 μM (optimal), 3 hours before irradiation): 1.6; protection against radiation lethality ([4]; 50 mg/kg to 500 mg/kg, p<0.05 vs. vehicle): dose-dependent protection; protection from LD50/30 whole body radiation dose ([4]; 500 mg/kg pretreatment): completely and reproducibly protected; mice protected (survival) ([4]; double injection, minus 24 hour and minus 15 minutes, prior to lethal ionizing radiation): 100%; efficacy of solution formulation ([4]; same dosing regimen, solution formulation vs suspension): similarly effective; mice protected (survival) ([4]; single injection at minus 15 minutes prior to lethal ionizing radiation): 100%; damage to the jejunal crypt stem cells (jejunal crypt stem cells): significantly less damage; survival relative to vehicle-treated animals [5]: survival benefit; white blood cells, platelets, hematocrit and hemoglobin levels ([6]; 120 mg/kg at 24 hours and 15 minutes before lethal radiation): general protective trend; improved repopulation of hematologic cell lineages ([6]; preliminary studies): not evident; protection from radiation exposure (clonogenic survival) [7]: protected; DNA damage caused by irradiation (Comet assays) (DNA damage): reduced the amount of DNA damage; level of apoptosis-specific signaling events [8]: reduced the level of apoptosis-specific signaling events; toxicity of treatment without radiation (human bone marrow cells [9]): non-toxic at all concentrations tested; also recorded: completely safe
